Drawing on US6265572A, “Pyrrolidincarbonylamino cyclic disulfide anti-inflammatory agents” (Hoffmann-La Roche Inc., priority 2000, dated 2001), this text covers IC50 for six compounds.

The target of one experiment is T1, VLA-4/VCAM-1 (Homo sapiens, UniProt P05556+P13612).
T1 construct: Ramos cell-derived VLA-4; endogenous in cells; host or cells: Ramos cells (VLA-4)
Briefly: VLA-4/VCAM-1 Screening Assay (solid-phase, dual antibody ELISA). The experiment is classed as binding. To be noted: Ramos cell-derived VLA-4, immobilized recombinant human VCAM-1. An excerpt: A means for determining the potency of these anti-inflammatory agents is by evaluating their ability to inhibit binding of the integrin VLA-4 to the cell adhesion molecule VCAM-1. For example, the potency of the compounds herein can be determined with respect to the concentration of the compound at 50% inhibition of VCAM/VLA4 binding (IC50) as measured by VLA-4/VCAM-1 binding assay.
In accordance with the present invention, any conventional method known in the art can be used to determine inhibition of VCAM-1/VLA-4 binding. For example, a solid-phase dual antibody ELISA or Ramos cell-based screening assay can be utilized to determine inhibition of VCAM-1/VLA-4 binding.
VLA-4/VCAM-1 Screening Assay
VLA-4 antagonist activity, defined as ability to compete for binding to immobilized VCAM-1, was quantitated using a solid-phase, dual antibody ELISA. VLA-4 (α4β1 integrin) bound to VCAM-1 is detected by a complex of anti-integrin β1 antibody: HRP-conjugated anti-mouse IgG: chromogenic substrate (K-Blue). Initially, this entailed coating 96 well plates (Nunc Maxisorp) with recombinant human VCAM-1 (0.4 μg in 100 μl PBS), sealing each plate and then allowing the plates to stand at 4° C. for 18 hours. […] On the day of assay, all plates are washed twice with VCAM Assay Buffer (200 μl/well of 50 mM Tris-HCl, 100 mM NaCl, 1 mM MnCl2, 0.05% T ween 20; pH 7.4). Test compounds are dissolved in 100% DMSO and then diluted 1:20 in VCAM Assay Buffer supplemented with 1 mg/mL BSA (i.e., final DMSO=5%). A series of 1:4 dilutions are performed to achieve a concentration range of 0.005 nM-1.563 μM for each test compound. 100 μl per well of each dilution is added to the VCAM-coated plates, followed by 10 μl of Ramos cell-derived VLA-4. These plates are sequentially mixed on a platform shaker for 1 min, incubated for 2 hour at 37° C., and then washed four times with 200 μl/well VCAM Assay Buffer. 100 μl of mouse anti-human integrin b1 antibody is added to each well (0.6 μg/mL in VCAM Assay Buffer+1 mg/mL BSA) and allowed to incubate for 1 hour at 37° C. At the conclusion of this incubation period, all plates are washed four times with VCAM Assay Buffer (200 μl/well). A corresponding second antibody, HRP-conjugated goat anti-mouse IgG (100 μl per well @ 1:800 dilution in VCAM Assay Buffer+1 mg/mL BSA), is then added to each well, followed by a 1 hour incubation at room temperature and concluded by three washes (200 μl/well) with VCAM Assay Buffer. Color development is initiated by addition of 100 μl K-Blue per well (15 mim incubation, room temp) and terminated by addition of 100 μl Red Stop Buffer per well. All plates are then read in a UV/Vis spectrophotometer at […]. Results are calculated as % inhibition of total binding (i.e., VLA-4+VCAM-1 in the absence of test compound).

For another experiment, the target named is T2, Ramos (VLA-4)/VCAM-1 (Homo sapiens, UniProt P05556+P13612).
T2 construct: Ramos cells bearing cell-surface VLA-4; endogenous in cells; host or cells: Ramos cells (VLA-4); soluble VCAM-1 purified from CHO cell culture media
T2 sequence (P13612 34-1032): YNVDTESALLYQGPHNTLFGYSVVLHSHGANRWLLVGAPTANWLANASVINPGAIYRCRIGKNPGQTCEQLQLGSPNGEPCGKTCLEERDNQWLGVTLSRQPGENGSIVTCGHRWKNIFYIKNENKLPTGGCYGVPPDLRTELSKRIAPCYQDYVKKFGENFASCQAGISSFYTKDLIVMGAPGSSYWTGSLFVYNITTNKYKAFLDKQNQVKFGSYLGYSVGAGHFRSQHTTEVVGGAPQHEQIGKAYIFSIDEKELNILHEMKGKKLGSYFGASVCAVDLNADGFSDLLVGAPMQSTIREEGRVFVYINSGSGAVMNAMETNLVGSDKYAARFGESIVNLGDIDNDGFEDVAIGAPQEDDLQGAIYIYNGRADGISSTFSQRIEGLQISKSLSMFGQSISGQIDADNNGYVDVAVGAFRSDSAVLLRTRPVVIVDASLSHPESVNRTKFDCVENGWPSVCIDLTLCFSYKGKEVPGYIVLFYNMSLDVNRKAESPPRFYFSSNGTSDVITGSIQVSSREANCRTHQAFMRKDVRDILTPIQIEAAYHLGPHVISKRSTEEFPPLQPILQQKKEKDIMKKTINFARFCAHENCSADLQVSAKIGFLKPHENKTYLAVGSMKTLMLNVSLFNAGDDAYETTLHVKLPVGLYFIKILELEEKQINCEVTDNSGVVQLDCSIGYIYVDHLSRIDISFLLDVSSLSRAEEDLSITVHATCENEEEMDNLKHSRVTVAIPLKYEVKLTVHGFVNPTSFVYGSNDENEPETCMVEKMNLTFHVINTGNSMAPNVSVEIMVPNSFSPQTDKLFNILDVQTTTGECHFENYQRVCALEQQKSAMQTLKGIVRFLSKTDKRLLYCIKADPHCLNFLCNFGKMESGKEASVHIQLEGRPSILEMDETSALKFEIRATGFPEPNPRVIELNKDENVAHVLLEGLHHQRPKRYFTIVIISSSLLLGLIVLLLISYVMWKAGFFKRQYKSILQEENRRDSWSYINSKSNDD
T2 sequence (P05556 21-798): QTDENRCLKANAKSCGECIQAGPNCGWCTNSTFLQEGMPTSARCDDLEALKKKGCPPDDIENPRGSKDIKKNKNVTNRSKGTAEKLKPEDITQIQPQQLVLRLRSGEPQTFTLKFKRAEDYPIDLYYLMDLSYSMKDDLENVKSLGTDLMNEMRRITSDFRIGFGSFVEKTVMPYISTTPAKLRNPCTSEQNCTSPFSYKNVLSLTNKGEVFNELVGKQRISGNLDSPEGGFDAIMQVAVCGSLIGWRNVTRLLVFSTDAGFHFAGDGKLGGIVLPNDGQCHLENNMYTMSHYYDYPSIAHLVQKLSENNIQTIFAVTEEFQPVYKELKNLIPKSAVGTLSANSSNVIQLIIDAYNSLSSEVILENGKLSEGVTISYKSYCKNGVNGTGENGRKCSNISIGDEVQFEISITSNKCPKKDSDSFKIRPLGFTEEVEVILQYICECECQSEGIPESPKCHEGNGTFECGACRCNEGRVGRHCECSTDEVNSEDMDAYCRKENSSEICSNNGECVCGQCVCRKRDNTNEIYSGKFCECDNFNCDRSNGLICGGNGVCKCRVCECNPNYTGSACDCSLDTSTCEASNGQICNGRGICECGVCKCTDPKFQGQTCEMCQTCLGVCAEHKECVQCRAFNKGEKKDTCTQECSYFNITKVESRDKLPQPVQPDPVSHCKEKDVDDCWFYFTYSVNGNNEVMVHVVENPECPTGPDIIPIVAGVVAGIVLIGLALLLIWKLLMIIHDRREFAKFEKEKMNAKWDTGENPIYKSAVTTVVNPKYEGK
Briefly: Ramos (VLA-4)/VCAM-1 Cell-Based Screening Assay (Ramos-VCAM-1 cell adhesion). To be noted: Calcein-AM labeled Ramos cells, immobilized recombinant human VCAM-1. How it is done: Ramos (VLA-4)/VCAM-1 Cell-Based Screening Assay Protocol
Soluble recombinant human VCAM-1 (mixture of 5- and 7-Ig domain) was purified from CHO cell culture media by immunoaffinity chromatography and maintained in a solution containing 0.1 M Tris-glycine (pH 7.5), 0.1 M NaCl, 5 mM EDTA, 1 mM PMSF, […] NaN3 and 10 μg/mL leupeptin. Calcein-AM was purchased from Molecular Probes Inc.
VLA-4 (a4b1 integrin) antagonist activity, defined as the ability to compete with cell-surface VLA-4 for binding to immobilized VCAM-1, was quantitated using a Ramos-VCAM-1 cell adhesion assay. Ramos cells bearing cell-surface VLA-4, were labeled with a fluorescent dye (Calcein-AM) and allowed to bind VCAM-1 in the presence or absence of test compounds. A reduction in fluorescence intensity associated with adherent cells (% inhibition) reflected competitive inhibition of VLA-4 mediated cell adhesion by the test compound.
Initially, this entailed coating 96 well plates (Nunc Maxisorp) with recombinant human VCAM-1 (100 ng in 100 μl PBS), sealing each plate and allowing the plates to stand at 4° C. for ^~ 18 hour. The VCAM-coated plates were subsequently washed twice with 0.05% Tween-20 in PBS, and then blocked for 1 hour (room temperature) with 200 μl of Blocking Buffer (1% BSA/0.02% thimerosal) to reduce non-specific binding. Following the incubation with Blocking Buffer, plates were inverted, blotted and the remaining buffer aspirated. Each plate was then washed with 300 μl PBS, inverted and the remaining PBS aspirated.
Test compounds were dissolved in 100% DMSO and then diluted 1:25 in VCAM Cell Adhesion Assay Buffer (4 mM CaCl2, 4 mM MgCl2 in 50 mM TRIS-HCl, pH 7.5) (final DMSO=4%). A series of eight 1:4 dilutions were performed for each compound (general concentration range of 1 nM-12,500 nM). 100 μl/well of each dilution was added to the VCAM-coated plates, followed by 100 μl of Ramos cells (200,000 cells/well in 1% BSA/PBS). Plates containing test compounds and Ramos cells were allowed to incubate for 45 min at room temperature, after which 165 μl/well PBS was added. Plates were inverted to remove non-adherent cells, blotted and 300 μl/well PBS added. Plates were again inverted, blotted and the remaining buffer gently aspirated. 100 μl Lysis Buffer (0.1% SDS in 50 mM TRIS-HCl, pH 8.5) was added to each well and agitated for 2 min on a rotary shaking platform. The plates were then read for fluorescence intensity on a Cytofluor 2300 (Millipore) fluorecence measurement system (excitation=485 nm, emission=530 nm).

T1 sequence (P13612 34-1032): as the sequence (P13612 34-1032) above
T1 sequence (P05556 21-798): as the sequence (P05556 21-798) above

For orientation: IC50 means the midpoint of a concentration-inhibition curve. On to `O=C(O)[C@@H]1CSSC[C@H](NC(=O)[C@H]2NCC[C@@H]2c2ccc(O)cc2)C(=O)NCCC2(CCCC2)C(=O)N1` [Example 26, (8R,13R)-13-[[[3(R)-(4-hydroxyphenyl)-2(S)-pyrrolidinyl]carbonyl]-amino]-6,14-dioxo-10,11-dithia-7,15-diazaspiro[4.12]heptadecane-8-carboxylic Acid], for which the IC50 on VLA-4/VCAM-1 stood at 190 pM. Take `CC(C)(C)C(=O)N1CC[C@H](c2ccc(O)cc2)[C@H]1C(=O)N[C@H]1CSSC[C@@H](C(=O)O)NC(=O)C2(CCCC2)CCNC1=O` [Example 24, (8R,13R)-13-[[[1-(2,2-dimethyl-1-oxopropyl)-3(R)-(4-hydroxyphenyl)-2(S)-pyrrolidinyl]carbonyl]amino]-6,14-dioxo-10,11-dithia-7,15-diazaspiro[4. 12]heptadecane-8-carboxylic Acid]: the IC50 on VLA-4/VCAM-1 is 140 pM; on Ramos (VLA-4)/VCAM-1 it was 180 pM. Turning to `CC(=O)N1CC[C@H](c2ccc(O)cc2)[C@H]1C(=O)N[C@H]1CSSC[C@@H](C(=O)O)NC(=O)C2(CCCC2)CCNC1=O` [Example 12, (8R,13R)-13-[[[1-acetyl-3-(R)-(4-hydroxyphenyl)-2-(S)-pyrrolidinyl]carbonyl]amino]-6,14-dioxo-10,11-dithia-7,15-diazaspiro[4. 12]heptadecane-8-carboxylic Acid], the results for the concentration for half-maximal inhibition (IC50) at VLA-4/VCAM-1 and at Ramos (VLA-4)/VCAM-1 were 185 pM and 210 pM, respectively. As for `CS(=O)(=O)N1CC[C@H](c2ccc(O)cc2)[C@H]1C(=O)N[C@H]1CSSC[C@@H](C(=O)O)NC(=O)C2(CCCC2)CCNC1=O` [Example 22, (8R,13R)-13-[[[1-methylsulfonyl-3-(R)-(4-hydroxyphenyl)-2-(S)pyrrolidinyl]carbonyl]amino]-6,14-dioxo-10,11-dithia-7,15-diazaspiro[4. 12]-heptadecane-8-carboxylic Acid], at VLA-4/VCAM-1, the half-maximal inhibitory concentration (IC50) stood at 170 pM.

Regarding `CC(=O)N1CC[C@H](c2ccc(O)cc2)[C@H]1C(=O)N[C@H]1CSSC[C@@H](C(=O)O)NC(=O)C2(CCCCC2)CCNC1=O` [Example 19, (9R,14R)-14-[[[1-acetyl-3-(R)-(4-hydroxyphenyl)-2-(S)-pyrrolidinyl]-arbonyl]amino]-7,15-dioxo-11,12-dithia-8,16-diazaspiro[5. 12]Octadecane-9-carboxylic Acid], the 50% inhibitory concentration (IC50) is 120 pM at VLA-4/VCAM-1 and 280 pM at Ramos (VLA-4)/VCAM-1. The corresponding values for `CC(=O)N1CC[C@@H](c2ccc(O)cc2)[C@@H]1C(=O)N[C@H]1CSSC[C@@H](C(=O)O)NC(=O)C2(CCCC2)CCNC1=O` [reference compound] are 1650 pM and 24000 pM.
